Patent US11674959B2, “Methods for identifying and preparing pharmaceutical agents for activating Tie1 and/or Tie2 receptors” (The Johns Hopkins University, priority 2017, dated 2023)

Tested on: Tie2
Assay: Western blot of MEC lysates, Ang1/2 signaling: Tie2 phosphorylation
Format: cell-based, human
Description: To investigate the effects of the integrin inhibitor AXT107 on Tie2 signaling, confluent monolayers of microvascular endothelial cells (MECs) on fibronectin-coated dishes were treated with various concentrations of AXT107 followed by exposure to the Tie2 ligands Ang1 or Ang2.
Human dermal microvascular endothelial cells (Lonza) were maintained at 37° C. and 5% CO2 in EBM-2MV medium (Lonza) and used between passages two through seven. Where applicable, cells were serum starved in EBM-2 medium (Lonza) with no supplements. For FITC-Dextran permeability assays phenol red-free media were used to avoid auto-fluorescence. AXT107 were manufactured at New England Peptide by […], lyophilized, and dissolved in 100% DMSO.
For Ang1/2 signaling investigations, cell culture dishes (10 cm diameter) were coated with 5 μg/ml fibronectin (FN1; Sigma-Aldrich, St. Louis, Mo.) for two hours at 37° C. The FN1 solution was then removed by aspiration and 5×10^6 microvascular endothelial cells (MECs; Lonza, Walkersville, Md.) were plated in EGM-2MV media (Lonza) and cultured for forty-eight hours at 37° C. The cells were then serum starved for sixteen hours in serum-free EGM-2 base media (Lonza). AXT107 (0-100 μM, as indicated) was subsequently added to each culture and incubated for seventy-five minutes at 37° C. The cultures were then treated with 1 mM sodium vanadate (New England Biolabs, Ipswich, Mass.) for fifteen minutes to enhance the phospho-Tie2 signal followed by stimulation with 200 ng/ml angiopoietin (R&D Systems, Minneapolis, Minn.) for an additional fifteen minutes. The cells were then transferred to ice, washed twice with ice cold Dulbecco's phosphate-buffered saline (dPBS) containing Ca^2+ and Mg^2+, and collected by scraping in 500 μl of 1× Blue Loading Buffer (Cell Signaling, Danvers, Mass.). Lysate samples were then sonicated, boiled, and resolved by SDS-PAGE. Specific proteins were identified by Western blot, using the following primary antibodies: Cell Signaling—phospho-Tie2 (Y992) (Cat #: 4221), Tie2 (Cat #: 7403), phospho-Stat3 (Y705) (Cat #: 4113), Stat3 (Cat #: 4904), phospho-Akt (S473) (Cat #: 4058), Akt (Cat #: 9272), phospho-p44/42 MAPK (T202/Y204) (Cat #: 4370), p44/42 MAPK (Cat #: 4695); BD Transduction Laboratories—β1 integrin (Cat #: 610467); Millipore—α5 integrin (Cat #: AB1928) and detected with HRP-conjugated goat anti-rabbit and sheep anti-mouse secondary antibodies (GE healthcare).

For LRRFSTAPFAFIDINDVINF [AXT107], the Tie2 phosphorylation (AXT107 (0-100 μM) in combination with 200 ng/ml Ang2) was “significant, dose-dependent increase in Tie2 phosphorylation”, the “Influence on Ang1 activity (Tie2 phosphorylation)” value (MECs on fibronectin, AXT107 then Ang1, data not shown) was “did not significantly influence Ang1 activity” and the “Phosphorylation by peptide alone” value (absence of either ligand) was “phosphorylation was not induced by peptide alone”. The “Total protein levels of Tie2 and the downstream targets” value (data not shown) was “remained unchanged”.
